In assay [1] the test system is colorectal cancer. The note with it: monotherapy; cited from earlier work.
Assay [2] relates to SW620 tumor. The assay can be described thus: In vivo efficacy, SW620 mouse xenograft model.
Experimental: Four-week old, female Swiss, nude mice (n=5 per group, Charles River, Lyon, France) were subcutaneously inoculated with 1×10^6 SW620 cells on the right flank. […] Drugs were administered intraperitoneously on a 3×/week basis for three consecutive weeks (e.g., D1/D2/D3, D8/D9/D10 and D16/D17/D18). Tumor size was measured three times a week in three dimensions using Vernier calipers, and tumor weight (mg) was calculated using the following standard formula: mass=pi/6XlengthXwidthXheight (Waterhouse et al, 2005). Preliminary experiments performed with empty liposomes were conducted to confirm the absence of any in vivo antiproliferative activity. Animal weight was monitored as a marker of toxicity. Animals were euthanized whenever a 25% loss of initial weight was observed, or when tumors reached 2500 mg.
Assay [3] concerns 5-FU-resistant SW620 human colorectal cell line. Nature of the assay: MTT testing of triple liposomal formulation, 72 continuous exposure. The note with it: SW-620. It counts as cell-based. An excerpt:
Cell sensitivity was estimated by calculating the respective IC50 of the different regimen (MTT testing, 72 continuous exposure).
Background: Tetrazolium dyes change colour on reduction, which living cells bring about.

In assay [4] the test system is SW620 human colon carcinoma cell line. Nature of the assay: Antiproliferative MTT assay, 24 h exposure plus 48 h drug-free. It counts as cell-based. The note with it: SW-620, SW620, 24 h exposure + 48 h drug-free medium, n=3, read-out: IC50 (5-FU concentration inhibiting 50% of cell growth). Here is the method:
(§1) All experiments were carried out in the 5-FU-resistant, human colon carcinoma cell line SW620 (a.k.a CCL227) which overexpresses TS. Cells were maintained in RPMI supplemented with 10% fetal calf serum, […] and 1% kanamycin in a humidified CO2 incubator at 37° C. All experiments were performed in exponentially growing cells.
Cells were seeded at a density of 8×10^4 cells/well in 96-well plates. […] Next, drug was removed and the cells were allowed to grow in fresh medium for an additional 48 h. After 72 h of discontinuous exposure, cell viability was evaluated using the classic colorimetric MTT assay (Alley et al, 1988). The IC50 was defined as the 5-FU concentration inhibiting 50% of cell growth.

Assay [5] has as its system SW620 cells. Nature of the assay: 5-FU tumoral metabolism study with tritiated 5-FU. It counts as cell-based, human. The note with it: SW620, 1 μM tritiated 5-FU, 3-6 h observation period. As for the experimental part:
as §1
Exponentially growing cells were exposed to 1 μM of tritiated 5-FU alone, combined with free d-Ino or as a liposomal preparation [5-FU+d-Ino]-L. After 3, 4 and 6 h exposure, cells were harvested, lysed into 70% methanol and cytosols were isolated by centrifugation (15000 rpm, 30 min) and stored at −80° C. until analysis. Separation of 5-FU and its main metabolites was achieved using a HP1090 HPLC system (Agilent, France) coupled to a Flo-One radioactive detector (Packard, France) and equipped with an RP18 column (Agilent, France), followed by elution with a K2HPO4-TBAN:Methanol gradient as described previously (Ciccolini et al, 2000b).

Results on 1 compound are retold here after patent US20100166848A1, “LIPOSOMAL FORMULATIONS FOR TREATING CANCER” (priority 2007, published 2010).

The structures appear in SMILES notation.

Take `O=c1[nH]cc(F)c(=O)[nH]1` [5-FU, 5-fluorouracil]: the response rate in assay [1] is listed as 20%. Besides, in assay [2] (5-FU 50 mg/kg, d-Ino 120 mg/kg IP, 3x/week for three weeks), the “tumor size reduction at the conclusion of the study” value worked out at 28%. In addition, in assay [2] (as compared with untreated animals), the “effect on tumor growth, in words” value is on record as “failed to reduce tumor growth”. In assay [2] (controls 16 days), this compound gave a survival time of 20 days. The “increase in survival time compared to controls” value in assay [2] (mouse, in vivo) came to 25%. Further, the IC50 was 62 µM in assay [3] and 77 ± 6 µM in assay [4]. Also, the “anti-TS FdUMP synthesis” value in assay [5] is 83 dpm/mg protein.
